Source: patent publication US20070259923A1, “MGluR5 modulators IV” (AstraZeneca AB, priority 2006, published 2007)

How the values were obtained:
[1] = Determination of brain to plasma ratio in rat; type: in vivo; conditions: brain and plasma, female Sprague Dawley rats, read-out: Brain/Plasma Ratio of compound in Rat
Procedure: Brain to plasma ratios are estimated in female Sprague Dawley rats. The compound is dissolved in water or another appropriate vehicle. For determination of brain to plasma ratio the compound is administrated as a subcutaneous, or an intravenous bolus injection, or an intravenous infusion, or an oral administration. At a predetermined time point after the administration a blood sample is taken with cardiac puncture. The rat is terminated by cutting the heart open, and the brain is immediately retained. The blood samples are collected in heparinized tubes and centrifuged within 30 minutes, in order to separate the plasma from the blood cells. The plasma is transferred to 96-well plates and stored at −20° C. until analysis. The brains are divided in half, and each half is placed in a pre-tarred tube and stored at −20° C. until analysis. Prior to the analysis, the brain samples are thawed and 3 ml/g brain tissue of distilled water is added to the tubes. The brain samples are sonicated in an ice bath until the samples are homogenized. Both brain and plasma samples are precipitated with acetonitrile. After centrifugation, the supernatant is diluted with 0.2% formic acid. […] After reconstitution of the residuals the samples are ready for injection onto the HPLC column.

human mGluR5d = target: T1, human mGluR5d (Homo sapiens, UniProt P41594); test: FLIPR assay, mGluR5 antagonism (intracellular calcium mobilization); type: cell-based; conditions: cells expressing human mGluR5d; read-out: FLIPR hmGluR5d
T1 construct: expressed in transfected cells; the IP3 assay names GHEK cells stably expressing human mGluR5d
T1 sequence (P41594 21-942 isoform P41594-3 limits assumed): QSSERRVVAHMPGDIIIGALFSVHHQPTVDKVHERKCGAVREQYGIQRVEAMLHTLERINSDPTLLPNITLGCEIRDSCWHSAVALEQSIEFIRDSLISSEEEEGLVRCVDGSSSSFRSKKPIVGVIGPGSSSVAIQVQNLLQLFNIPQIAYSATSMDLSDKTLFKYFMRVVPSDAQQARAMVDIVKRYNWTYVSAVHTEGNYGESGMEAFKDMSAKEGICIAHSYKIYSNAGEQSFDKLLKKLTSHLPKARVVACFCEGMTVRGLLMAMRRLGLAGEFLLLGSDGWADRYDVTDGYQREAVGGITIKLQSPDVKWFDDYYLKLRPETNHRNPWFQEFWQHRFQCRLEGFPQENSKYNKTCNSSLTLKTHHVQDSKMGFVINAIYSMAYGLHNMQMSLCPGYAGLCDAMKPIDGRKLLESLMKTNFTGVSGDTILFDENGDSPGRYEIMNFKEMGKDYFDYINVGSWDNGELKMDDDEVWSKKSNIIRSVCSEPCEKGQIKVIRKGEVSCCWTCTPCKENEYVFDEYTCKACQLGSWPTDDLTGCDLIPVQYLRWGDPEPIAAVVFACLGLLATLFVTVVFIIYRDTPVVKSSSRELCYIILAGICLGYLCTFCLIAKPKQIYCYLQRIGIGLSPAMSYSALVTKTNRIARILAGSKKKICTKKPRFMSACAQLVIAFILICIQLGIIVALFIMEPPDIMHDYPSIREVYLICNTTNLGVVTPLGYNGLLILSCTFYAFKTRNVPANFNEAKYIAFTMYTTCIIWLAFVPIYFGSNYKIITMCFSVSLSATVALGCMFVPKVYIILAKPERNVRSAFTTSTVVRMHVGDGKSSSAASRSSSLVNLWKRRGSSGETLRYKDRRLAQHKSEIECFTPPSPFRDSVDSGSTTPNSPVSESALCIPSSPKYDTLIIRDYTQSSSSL
Source text: The properties of the compounds of the invention can be analyzed using standard assays for pharmacological activity. Examples of glutamate receptor assays are well known in the art as described in for example Aramori et al., Neuron 8:757 (1992), Tanabe et al., Neuron 8:169 (1992), Miller et al., J. Neuroscience 15: 6103 (1995), Balazs, et al., J. Neurochemistry 69:151 (1997). The methodology described in these publications is incorporated herein by reference. Conveniently, the compounds of the invention can be studied by means of an assay (FLIPR) that measures the mobilization of intracellular calcium, [Ca^2+]i in cells expressing mGluR5 or another assay (IP3) that measures inositol phosphate turnover.
Cells expressing human mGluR5d as described in WO97/05252 are seeded at a density of 100,000 cells per well on collagen coated clear bottom 96-well plates with black sides and experiments are done 24 h following seeding. […] The fluorescence signal is sampled 50 times at 1 second intervals followed by 3 samples at 5 second intervals immediately after each of the two additions. Responses are measured as the difference between the peak height of the response to agonist, less the background fluorescence within the sample period. […]

Cn1c(-c2cccnc2)nnc1N1CCC[C@@H]1c1cc(-c2cccc(C#N)c2)on1 [Example 12.6, 3-{3-[(R)-1-(4-Methyl-5-pyridin-3-yl-4H-[1,2,4]triazol-3-yl)-pyrrolidin-2-yl]-isoxazol-5-yl}-benzonitrile]
Kp [1]: 0.05 | IC50 (human mGluR5d): 86 nM

Cc1cc(-c2nnc(N3CCC[C@@H]3c3cc(-c4cccc(C#N)c4)on3)n2C)ccn1 [Example 12.4, 3-(3-{(R)-1-[4-Methyl-5-(2-methyl-pyridin-4-yl)-4H-[1,2,4]triazol-3-yl]-pyrrolidin-2-yl}-isoxazol-5-yl)-benzonitrile]
Kp [1]: 0.06 | IC50 (human mGluR5d): 47 nM
